System: MDA-MB-231 cells
Assay: Viability of MDA-MB-231 cancer cells (CELLTITER, Example B5)
Assay type: cell-based
Conditions: Homo sapiens, 72 hours incubation, read-out: Cell Viability (%); for viability at 0.005 µM: Conc. 5 nM; for viability at 0.01 µM: Conc. 10 nM; for viability at 0.02 µM: Conc. 20 nM
Description: Compounds A1 and A3 to A6 were tested for their ability to reduce the viability of MDA-MB-231 cells, along with ciclopirox (CPX). MDA-MB-231 is a metastatic human breast cancer cell line. […] Seventy-two hours after incubation, cell viability was measured using CELLTITER® from Promega.

With `Cc1cc(C2CCCCC2)n(OS(=O)(=O)c2ccc(C(C)C)cc2)c(=O)c1` [Compound A3, 6-Cyclohexyl-4-methyl-2-oxopyridin-1(2H)-yl 4-isopropylbenzenesulfonate] the viability at 0.005 µM was 48.3 ± 4.9%, the viability at 0.01 µM was 34.4 ± 6.9% and the viability at 0.02 µM was 28.4 ± 1.3%.

For `Cc1cc(C2CCCCC2)n(OS(=O)(=O)c2cccs2)c(=O)c1` [Compound A6, 6-Cyclohexyl-4-methyl-2-oxopyridin-1(2H)-yl thiophene-2-sulfonate], the viability at 0.005 µM was 26.7 ± 4%, the viability at 0.01 µM was 31.4 ± 8.4% and the viability at 0.02 µM was 22.1 ± 3.6%.

`CCCS(=O)(=O)On1c(C2CCCCC2)cc(C)cc1=O` [Compound A4, 6-Cyclohexyl-4-methyl-2-oxopyridin-1(2H)-yl propane-1-sulfonate] was tested, and the viability at 0.005 µM was 40.5 ± 11.4%, the viability at 0.01 µM was 32.3 ± 0.6% and the viability at 0.02 µM was 29.2 ± 1.7%.

Work on `Cc1cc(C2CCCCC2)n(OS(=O)(=O)c2c(C(C)C)cc(C(C)C)cc2C(C)C)c(=O)c1` [Compound A5, 6-Cyclohexyl-4-methyl-2-oxopyridin-1(2H)-yl 2,4,6-triisopropylbenzenesulfonate] yielded a viability at 0.005 µM of 62.9 ± 9.6%, a viability at 0.01 µM of 50.6 ± 6.2% and a viability at 0.02 µM of 40.6 ± 7.1%.

Molecule `Cc1cc(C2CCCCC2)n(OS(=O)(=O)c2ccccc2)c(=O)c1` [Compound A1, 6-cyclohexyl-4-methyl-2-oxopyridin-1(2H)-yl benzenesulfonate] has a viability at 0.005 µM of 46.8 ± 8%, a viability at 0.01 µM of 31.1 ± 5.4% and a viability at 0.02 µM of 22.1 ± 4.9%.

`Cc1cc(C2CCCCC2)n(O)c(=O)c1` [CPX, ciclopirox, reference compound] gave a viability at 0.003 µM (Conc. 3 nM) of 60.3 ± 2%, a viability at 0.005 µM of 43.4 ± 2.2% and a viability at 0.01 µM of 46.3 ± 11.1%. The viability at 0.02 µM was 20.9 ± 1.5%.

Reference: patent US9926277B2, “Pyridone compounds, pharmaceutical compositions thereof, and their therapeutic use for treating proliferative diseases” (BioTheryX, Inc., priority 2015, dated 2018)
